What was measured:
[1] = target: CYP3A4 (Homo sapiens, UniProt P08684); assay: IC50 vs CYP3A by inhibition of lopinavir metabolism in human liver microsomes; format: biochemical; conditions: pH 7.4, human liver microsomes, 1.5 μM lopinavir, 8 min at 37° C., test concentrations 0.098-100 nM, read-out: 3A4(LPV)
Procedure: Determination of IC50 vs CYP3A by Measurement of Inhibition of Lopinavir Metabolism
This assay was performed in a standard 96-well plate design. IC50 values were calculated from the percent inhibition observed for each test compound at 6 concentrations (for example, 0.098, 0.391, 1.56, 6.25, 25 and 100 nM). The incubation substrate mix contains 1.5 μM lopinavir, 0.01 mg/mL protein human liver microsomes (BD Gentest), 1 mM NAPDH, 3.3 mM MgCl2 and 100 mM potassium phosphate buffer (pH 7.4). The production of the sum of three hydroxylated metabolites (M2: 6-hydroxy lopinavir, M3: 4-hydroxy lopinavir, M4: 4-hydroxy lopinavir (epimer of M3), Kumar et al., 1999) was determined after incubation for 8 min at 37° C. Quantitation of the metabolite peak area ratio against an internal standard (tolbutamide) was determined by LC/MS/MS analysis following acetonitrile treatment of the incubations.
(§1) Samples were analyzed in the MRM mode with a SCIEX API-4000 mass spectrometer (Applied Biosystems, Foster City, Calif.), with a Shimadzu LC-20 AD pump (Shimadzu corporation, Kyoto, JP) and a CTC PAL autosampler (Agilent Technologies, Switzerland). A Phenomenex, Luna, 5 μm, 100 A, 2.00×30 mm HPLC column was used for the separation. The mobile phases were: (A) 0.1% formic acid in water and (B) 0.1% formic acid in acetonitrile. The binary gradient was as follows.
(§2) The peak area ratio of the analyte to the internal standard was used to quantify the metabolite. The values of peak area ratios in the presence of test compound were compared to those of maximum or minimum controls and were expressed as % inhibition by interpolating between the maximum and minimum peak area ratios. Incubations with no inhibitor were defined as the maxima and with 5 μM ketoconazole were defined as the minima
(§3) The following equation was used to calculate the % inhibition:
(§4) [1−[(X−Low control)/(High control−Low control)]]*100
(§5) For the IC50 calculation, SigmaPlot was used to plot the mean % inhibition versus the test compound concentrations and for non-linear regression analysis of the data. Depending on the range of data points defining the inhibition curve, the data may have been fit to the 4-parameter logistic equation.

[2] = target: T1, CYP2D6 (Homo sapiens, UniProt P10635); assay: Cocktail CYP assay, dextromethorphan O-demethylation; format: in vitro ADME; conditions: human liver microsomes, 5 μM dextromethorphan; test concentrations up to 10 μM
T1 construct: 0.1 mg/mL protein human liver microsomes (BD Gentest); tissue BD Gentest; host or cells: human liver microsomes
Procedure: (§6) Determination of IC50 in a Cocktail Assay for CYPs 1A2, 2C9, 2C19, 2D6 and 3A4
(§7) This assay was performed in a standard 96-well plate design. IC50 values were calculated from the percent inhibition observed for each test compound at 6 concentrations (for example, 0.0032, 0.016, 0.08, 0.4, 2 and 10 μM). The incubation substrate mix contains 10 μM phenacetin (1A2), 5 μM diclofenac (2C9), 30 μM mephenyloin (2C19), 5 μM dextromethorphan (2D6) and 2 μM midazolam (3A4), 0.1 mg/mL protein human liver microsomes (BD Gentest), 1 mM NAPDH, 3.3 mM MgCl2 and 100 mM potassium phosphate buffer (pH 7.4). The production of the metabolite of each probe substrate was determined after incubation for 10 min at 37° C. Quantitation of the metabolite peak area ratio against an internal standard (tolbutamide) was determined by LC/MS/MS analysis following acetonitrile treatment of the incubations.
as §1, with “[…],” for “μm,”
as §2, with “maxima.” for “maxima and with 5 μM ketoconazole were defined as the minima”
as §3, §4, §5

[3] = target: T2, CYP2C19 (Homo sapiens, UniProt P33261); assay: Cocktail CYP assay, mephenytoin 4'-hydroxylation; format: in vitro ADME; conditions: human liver microsomes, 30 μM mephenytoin; test concentrations up to 10 μM
T2 construct: 0.1 mg/mL protein human liver microsomes (BD Gentest); tissue BD Gentest; host or cells: human liver microsomes
Procedure: as §6, §7
as §1, with “[…],” for “μm,”
as §2, with “maxima.” for “maxima and with 5 μM ketoconazole were defined as the minima”
as §3, §4, §5

[4] = target: T3, CYP2C9 (Homo sapiens, UniProt P11712); assay: Cocktail CYP assay, diclofenac 4'-hydroxylation; format: in vitro ADME; conditions: human liver microsomes, 5 μM diclofenac; test concentrations up to 10 μM
T3 construct: 0.1 mg/mL protein human liver microsomes (BD Gentest); tissue BD Gentest; host or cells: human liver microsomes
Procedure: as §6, §7
as §1, with “[…],” for “μm,”
as §2, with “maxima.” for “maxima and with 5 μM ketoconazole were defined as the minima”
as §3, §4, §5

T2 sequence (P33261 whole entry): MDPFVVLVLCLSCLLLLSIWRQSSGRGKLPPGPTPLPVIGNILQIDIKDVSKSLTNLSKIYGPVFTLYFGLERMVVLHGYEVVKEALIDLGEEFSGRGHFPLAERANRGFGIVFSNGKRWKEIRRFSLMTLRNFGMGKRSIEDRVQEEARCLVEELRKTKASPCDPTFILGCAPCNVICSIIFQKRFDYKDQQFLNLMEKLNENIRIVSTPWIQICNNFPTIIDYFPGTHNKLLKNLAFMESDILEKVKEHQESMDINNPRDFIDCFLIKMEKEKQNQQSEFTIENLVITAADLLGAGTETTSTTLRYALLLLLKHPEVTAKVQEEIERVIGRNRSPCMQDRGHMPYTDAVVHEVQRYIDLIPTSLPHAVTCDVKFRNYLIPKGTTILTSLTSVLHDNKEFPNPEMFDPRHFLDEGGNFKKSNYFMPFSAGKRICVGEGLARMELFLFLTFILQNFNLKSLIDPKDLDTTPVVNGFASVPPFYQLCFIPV
Chain of CYP3A4 (P08684 2-503): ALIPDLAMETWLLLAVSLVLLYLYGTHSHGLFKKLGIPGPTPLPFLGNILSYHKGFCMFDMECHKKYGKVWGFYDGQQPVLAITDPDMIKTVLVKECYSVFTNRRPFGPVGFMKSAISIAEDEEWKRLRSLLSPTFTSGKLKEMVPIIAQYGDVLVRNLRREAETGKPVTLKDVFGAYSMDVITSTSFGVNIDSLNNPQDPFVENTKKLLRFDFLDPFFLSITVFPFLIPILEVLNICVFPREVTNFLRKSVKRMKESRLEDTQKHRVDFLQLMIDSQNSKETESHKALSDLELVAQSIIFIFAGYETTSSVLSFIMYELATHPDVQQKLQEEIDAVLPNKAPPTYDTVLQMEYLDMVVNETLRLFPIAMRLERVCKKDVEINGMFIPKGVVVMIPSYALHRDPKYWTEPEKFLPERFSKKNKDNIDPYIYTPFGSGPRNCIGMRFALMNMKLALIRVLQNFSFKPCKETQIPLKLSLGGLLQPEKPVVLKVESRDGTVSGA
T1 sequence (P10635 whole entry): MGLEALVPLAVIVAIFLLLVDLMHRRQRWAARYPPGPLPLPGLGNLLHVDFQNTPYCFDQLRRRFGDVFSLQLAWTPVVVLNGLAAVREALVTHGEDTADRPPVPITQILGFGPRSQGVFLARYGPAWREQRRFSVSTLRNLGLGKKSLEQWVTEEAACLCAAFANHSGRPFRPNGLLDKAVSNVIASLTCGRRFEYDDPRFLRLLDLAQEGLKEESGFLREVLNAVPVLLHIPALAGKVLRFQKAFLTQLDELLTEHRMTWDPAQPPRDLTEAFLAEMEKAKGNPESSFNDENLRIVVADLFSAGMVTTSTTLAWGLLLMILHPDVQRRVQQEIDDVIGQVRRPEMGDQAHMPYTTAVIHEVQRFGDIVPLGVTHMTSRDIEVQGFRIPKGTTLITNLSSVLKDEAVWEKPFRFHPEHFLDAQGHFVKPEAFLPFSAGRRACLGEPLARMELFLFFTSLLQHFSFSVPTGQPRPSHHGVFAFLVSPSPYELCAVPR
T3 sequence (P11712 whole entry): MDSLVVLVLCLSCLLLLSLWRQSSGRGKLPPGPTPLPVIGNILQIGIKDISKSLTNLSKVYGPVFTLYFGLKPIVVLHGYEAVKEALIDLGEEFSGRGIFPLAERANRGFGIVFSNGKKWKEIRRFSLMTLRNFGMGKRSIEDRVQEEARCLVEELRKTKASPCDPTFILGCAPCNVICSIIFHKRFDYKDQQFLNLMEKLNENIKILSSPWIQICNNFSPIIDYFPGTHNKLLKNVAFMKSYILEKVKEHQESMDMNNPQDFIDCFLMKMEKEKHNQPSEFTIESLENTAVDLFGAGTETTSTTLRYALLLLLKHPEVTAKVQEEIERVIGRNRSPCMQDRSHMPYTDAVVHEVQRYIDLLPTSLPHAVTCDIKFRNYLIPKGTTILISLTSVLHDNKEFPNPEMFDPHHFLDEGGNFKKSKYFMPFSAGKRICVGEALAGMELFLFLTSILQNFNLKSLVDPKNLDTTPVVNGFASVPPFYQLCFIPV

| SMILES | IC50 at 8 min [1] | IC50 [2] | IC50 [3] | IC50 [4] |
| --- | --- | --- | --- | --- |
| CC(c1cncn1[C@H](C)c1ccc(F)cc1)N1CCN(S(=O)(=O)c2cnc(N3CCN4C[C@H](O)C[C@H]4C3)s2)CC1 (stereo partly shown) [Compound 37] | 4.1 nM | > 10000 nM | > 10000 nM | 6100 nM |
| C[C@H](c1ccc(F)cc1)n1cncc1C1C(=O)OCC2CN(S(=O)(=O)c3cnc(Nc4ccc(C(F)(F)F)cn4)s3)CCN21 (stereo partly shown) [Compound 39] | 8 nM | 2180 nM | 2650 nM | 4700 nM |
| C[C@H](c1ccc(F)cc1)n1cncc1C1COCC2CN(S(=O)(=O)c3cnc(Nc4ccccn4)s3)CCN21 (stereo partly shown) [Compound 40] | 0.8 nM | 2890 nM | 3050 nM | 357 nM |
| C[C@H](c1ccc(F)cc1)n1cnnc1CN1CCN(S(=O)(=O)c2cnc(N3CCN4C[C@H](O)C[C@H]4C3)s2)CC1 [Compound 42] | 32 nM | > 10000 nM | > 10000 nM | > 10000 nM |

Reference: patent US20140005103A1, “SULFONAMIDE DERIVATIVES AND METHODS OF USE THEREOF FOR IMPROVING THE PHARMACOKINETICS OF A DRUG” (Merck, Sharp & Dohme Corp., priority 2012, published 2014)
